The results in this text go back to patent US6953677B2, “Recombinant L-N-carbamoylase from Arthrobacter aurescens and method of producing L-amino acids therewith” (Degussa AG, priority 1998, dated 2005).

Read-outs that look alike come from different tables or passages of the source.

The target in data set [1] is rec-L-N-carbamoylase from A.a. (Paenarthrobacter aurescens, UniProt Q9F464). The class given is biochemical, Arthrobacter aurescens. The conditions noted are these: pH 8.5, homogeneously purified enzyme. On the procedure: (§1) The substrate specificity of the carbamoylase was investigated with homogeneously purified enzyme. The latter was obtained after cell maceration and ion exchange chromatography on Streamline-DEAE- and MonoQ media. A solution of the particular substrate was produced in a concentration of 1.8 mM (exception N-carbamoyl-L-methionine: 50 mM) in 0.1 M TRIS-HCl, pH 8.5 and used instead of the standard substrate in the standard activity test. Instead of the trichloroacetic acid (TCA) used in the standard test for stopping, in the case of the substrates N-formyl-D,L-tryptophane, N-carbamoyl-L-thienylalanine and N-acetyl-D,L-tryptophane heat denaturation was used to terminate the reaction (incubation for 10 min in a boiling water bath) and in the case of the substrate N-carbamoyl-D,L-phenylalanine, addition of 900 μl methanol to 100 μl assay solution was used. The concentration of the amino acid was subsequently determined either by HPLC or colorimetrically after reaction with ninhydrin.
(§2) 5 ml of a cell culture induced with rhamnose are centrifuged at 3000 rpm for 5 min in a Heraeus Megafuge, washed with 5 ml buffer (200 mM TRIS-HCl, pH 7.0), re-centrifuged, taken up in 1 ml buffer (200 mM TRIS-HCl, 0.1 mM MnCl2 pH 7.0) and macerated by ultrasound (Ultrasonics Sonicator, microtip, 2×30 sec, duty cycle 50%). Cell fragments are removed by centrifugation in an Eppendorf centrifuge at 13000 rpm, 10 min. The supernatant, designated as raw extract, is used for the enzyme measurement. 100 μl raw extract or cleaned-up enzyme is mixed with 800 μl 2 mM N-carbamoyl amino acid preheated to 37° C. in 100 mM TRIS-HCl, pH 8.5 and incubated 10 min at 37° C. The reaction is stopped by the addition of 400 μl trichloroacetic acid. The precipitated protein is separated by centrifugation in an Eppendorf centrifuge at 13000 rpm for 10 min. The supernatant is subsequently measured in an HPLC or calorimetrically (ninhydrin). The separation of the reaction mixture takes place in an HPLC with an RP-18 column, the mobile solvent is 0.3% (V/V) phosphoric acid, 80% methanol, flow rate 1.0 ml/min. The detection takes place by measuring the UV absorption at a wavelength of 280 nm.

Substrate in data set [2]: O=CNC(Cc1c[nH]c2ccccc12)C(=O)O
The experiment in a line: purified protein, by the assay type. The class given is biochemical, Arthrobacter aurescens. The conditions noted are these: other: homogeneously purified enzyme, 0.1 M TRIS-HCl, pH 8.5, 37.0 °C. As to the method: as §1, §2

Substrate in data set [3]: NC(=O)N[C@@H](Cc1cccs1)C(=O)O
In words: purified protein, by the assay type. The class given is biochemical, Arthrobacter aurescens. The following applies: other: homogeneously purified enzyme, 0.1 M TRIS-HCl, pH 8.5, 37.0 °C. On the procedure:
as §1, §2

Substrate in data set [4]: NC(=O)N[C@@H](Cc1ccc(O)cc1)C(=O)O
In words: purified protein, by the assay type. The class given is biochemical, Arthrobacter aurescens. The conditions noted are these: other: homogeneously purified enzyme, 0.1 M TRIS-HCl, pH 8.5, 37.0 °C. As to the method:
as §1, §2

Substrate in data set [5]: NC(=O)NC(Cc1ccccc1)C(=O)O
In words: purified protein, by the assay type. Type of data set: biochemical, Arthrobacter aurescens. The conditions noted are these: other: homogeneously purified enzyme, 0.1 M TRIS-HCl, pH 8.5, 37.0 °C. As to the method: as §1, §2

Substrate in data set [6]: NC(=O)N[C@@H](Cc1c[nH]c2ccccc12)C(=O)O
In words: purified protein, by the assay type. The conditions noted are these: other: homogeneously purified enzyme, 0.1 M TRIS-HCl, pH 8.5, 37.0 °C. The class given is biochemical, Arthrobacter aurescens. As to the method:
as §1, §2

The nature of data set [7]: Temperature stability of the rec-L-N-carbamoylase (storage, then standard activity test). Type of data set: physicochemical, Arthrobacter aurescens. On the procedure: FIG. 2: Standard activity assay of the isolated recombinant Arthrobacter aurescens N-L-carbamoylase enzyme isolated from E.coli. The N-L-carbamoylase was isolated after cell maceration and ion exchange chromatography on Streamline DEAE and MonoQ media. N-L-carbamoylase activity was determined by reacting with the substrate N-carbamoyl-L-tryptophane over 100 hours wherein the concentration of the amino acid tryptophan was determined in order to calculate N-L carbamoylase activity. The N-L-carbamoylase enzyme activity was measured and reached a relative activity level of around 100% between hours 40 and […] of incubation 37° C.
[…] The standard test for determination of activity was carried out at time intervals of 1-100 h.
as §2

Data set [8] in a line: N-L-carbamoylase activity of raw extract of rhamnose-induced E. coli JM109/pAW178-2. The class given is biochemical, Arthrobacter aurescens. The conditions noted are these: 9 h after rhamnose induction, approximately maximum; N-carbamoyl-L-tryptophane as substrate. As to the method:
1 ml of an overnight culture of E. coli JM109/pAW178-2 (FIG. 1) in LBamp is added into 100 ml fresh LBamp medium in a one-liter Erlenmeyer flask and the latter incubated at 30° C. in a water bath under agitation (200 rpm). 1 ml of a 20% rhamnose solution is added to the culture at an optical density of the culture of 0.5 (measured at a wavelength of 600 nm in a photometer) (end concentration […]) and the culture incubated further. After a further 9 h incubation approximately the maximum of the N-L-carbamoylase activity is achieved, a specific activity of 1.8 units/mg raw extract, measured with N-carbamoyl-L-tryptophane as substrate. No activity was found in cultures which had not been induced with rhamnose.
5 ml of a cell culture induced with rhamnose are centrifuged at 3000 rpm for 5 min in a Heraeus Megafuge, washed with 5 ml buffer (200 mM TRIS-HCl, pH 7.0), re-centrifuged, taken up in 1 ml buffer (200 mM TRIS-HCl, 0.1 mM MnCl2 pH 7.0) and macerated by ultrasound (Ultrasonics Sonicator, microtip, 2×30 sec, duty cycle 50%). Cell fragments are removed by centrifugation in an Eppendorf centrifuge at 13000 rpm, 10 min. The supernatant, designated as raw extract, is used for the enzyme measurement. […] The supernatant is subsequently measured in an HPLC or calorimetrically (ninhydrin). […]

Where [9] appears, read: substrate 1.8 mM in 0.1 M TRIS-HCl, n.n. = can not be detected.

For `CC(=O)NC(Cc1c[nH]c2ccccc12)C(=O)O` (racemic) [N-acetyl-D,L-tryptophane], in data set [1] (setting [9]), the Activity % entry is reported as “n.n”.

For the molecule `NC(=O)NC(CC(=O)O)C(=O)O` (racemic) [N-carbamoyl-D,L-aspartate], in data set [1] (setting [9]), the Activity % entry is “n.n”.

Regarding `NC(=O)N[C@H](C(=O)O)c1ccccc1` [N-carbamoyl-L-phenylglycine], the Activity % result in data set [1] (setting [9]) is “n.n”.

Regarding `NC(=O)NCCC(=O)O` [N-carbamoyl-β-alanine], the Activity % result in data set [1] (setting [9]) was “n.n”.

On to `N=C(N)NCCC[C@H](NC(N)=O)C(=O)O` [N-carbamoyl-L-arginine], for which, in data set [1] (setting [9]), the Activity % entry is “n.n”.

Consider `O=CNC(Cc1c[nH]c2ccccc12)C(=O)O` (racemic) [N-formyl-D-L-tryptophane], for which the Activity % in data set [1] (setting [9]) is listed as 97%.

In the case of `NC(=O)N[C@@H](Cc1c[nH]c2ccccc12)C(=O)O` [N-carbamoyl-L-tryptophane], the Activity % in data set [1] (setting [9]) is reported as 100%.

`NC(=O)NC(Cc1ccccc1)C(=O)O` (racemic) [N-carbamoyl-D,L-phenylalanine] had an Activity % in data set [1] (setting [9]) of 97%.

Consider `NC(=O)N[C@@H](CCC(=O)O)C(=O)O` [N-carbamoyl-L-glutamate], for which the Activity % result in data set [1] (setting [9]) is reported as “n.n”.

For `O=CN[C@@H](CC(=O)O)C(=O)O` [N-formyl-L-aspartate], in data set [1] (setting [9]), the Activity % result was “n.n”.

Regarding `NC(=O)N[C@H](Cc1c[nH]c2ccccc12)C(=O)O` [N-carbamoyl-D-tryptophane], in data set [1] (setting [9]), the Activity % entry is reported as “n.n”.

`NC(=O)N[C@@H](Cc1cccs1)C(=O)O` [N-carbamoyl-L-thienylalanine] had an Activity % in data set [1] (setting [9]) of 314%.

Consider `NC(=O)N[C@@H](C(=O)O)c1ccccc1` [N-carbamoyl-D-phenylglycine], for which the Activity % entry in data set [1] (setting [9]) was “n.n”.

As to `NC(=O)N[C@@H](Cc1ccc(O)cc1)C(=O)O` [N-carbamoyl-L-tyrosine], in data set [1] (setting [9]), the Activity % is 126%.

With `NC(=O)N[C@H](Cc1ccccc1)C(=O)O` [N-carbamoyl-D-phenylalanine], in data set [1] (setting [9]), the Activity % entry is on record as “n.n”.

Take `CSCC[C@H](NC(N)=O)C(=O)O` [N-carbamoyl-L-methionine]: the Activity % in data set [1] (substrate 50 mM (exception) in 0.1 M TRIS-HCl) amounted to 17%.

B1: rec-L-N-carbamoylase from A.a. (Paenarthrobacter aurescens) (protein)
chain: MTLQKAQAERIEKEIRELSRFSAEGPGVTRLTYTPEHAAARETLIAAMKAAALSVREDALGNIIGRREGTDPELPAIAVGSHFDSVRNGGMFDGTAGVVCALEAARVMLENGYVNRHPFEFIAIVEEEGARFSSGMLGGRAIAGLVADRELDSLVDEDGVSVRQAATAFGLKPGELQAAARSAADLRAFIELHIEQGPILEQEQIEIGVVTSIVGVRALRVAVKGRSDHAGTTPMHLRQDALVPAALMVREVNRFVNEIADGTVATVGHLTVAPGGGNQVPGEVDFTLDLRSPHEESLRVLIDRISVMVGEVASQAGVAADVDEFFNLSPVQLAPTMVDAVREAASALQFTHRDISSGAGHDSMFIAQVTDVGMVFVPSRAGRSHVPEEWTDFDDLRKGTEVVLRVMKALDR
For the molecule B1, the Km stood at 8.5 MM in data set [2]; 2.3 MM in data set [3]; 0.3 MM in data set [4]; 0.7 MM in data set [5]; 0.12 MM in data set [6].

B2: rec-carbamoylase: recombinant L-N-carbamoylase from Arthrobacter aurescens (hyuC gene, SEQ ID NO:2) expressed in E. coli (protein, listed as Arthrobacter aurescens)
chain: MTLQKAQAARIEKEIRELSRFSAEGPGVTRLTYTPEHAAARETLIAAMKAAALSVREDALGNIIGRREGTDPELPAIAVGSHFDSVRNGGMFDGTAGVVCALEAARVMLENGYVNRHPFEFIAIVEEEGARFSSGMLGGRAIAGLVADRELDSLVDEDGVSVRQAATAFGLKPGELQAAARSAADLRAFIELHIEQGPILEQEQIEIGVVTSIVGVRALRVAVKGRSDHAGTTPMHLRQDALVPAALMVREVNRFVNEIADGTVATVGHLTVAPGGGNQVPGEVDFTLDLRSPHEESLRVLIDRISVMVGEVASQAGVAADVDEFFNLSPVQLAPTMVDAVREAASALQFTHRDISSGAGHDSMFIAQVTDVGMVFVPSRAGRSHVPEEWTDFDDLRKGTEVVLRVMKALDR
For B2, in data set [7] (37° C., 100 h, homogeneously purified recombinant enzyme), the “activity on storage at 37° C.” value is reported as “almost unchanged”. Moreover, in data set [7] (50° C.), the “duration of activity at 50° C.” value was “hours”. The relative activity level entry in data set [7] (between hours 40 and 140 of incubation 37° C., substrate N-carbamoyl-L-tryptophane (FIG. 2)) is “around 100%”. The specific activity in data set [8] was found to be 1.8 units/mg raw extract.
